Test results: US5859042A, “Five membered heterocyclic compounds” (Ono Pharmaceutical Co., Ltd., priority 1997, dated 1999)

Molecular target: T1, 5α-reductase (Homo sapiens, UniProt P31213)
T1 construct: Frozen human prostates were thawed on ice and minced with scissors into small pieces; from tissue; host or cells: human prostate (frozen), washed 140,000×g membrane pellet
T1 sequence (P31213 1-254): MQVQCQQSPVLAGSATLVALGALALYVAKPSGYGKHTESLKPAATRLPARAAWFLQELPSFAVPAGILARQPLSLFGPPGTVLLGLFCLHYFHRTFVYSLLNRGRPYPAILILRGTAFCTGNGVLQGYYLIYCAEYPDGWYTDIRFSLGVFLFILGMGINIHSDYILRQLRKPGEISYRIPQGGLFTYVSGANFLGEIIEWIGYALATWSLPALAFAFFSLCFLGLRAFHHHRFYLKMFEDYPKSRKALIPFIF
Assay: inhibitory activity on 5α-reductase from human prostates (conversion of 14C-testosterone to DHT)
Type: biochemical
Conditions: human prostatic 5α-reductase, pH 5.0, 1 μM 14C-testosterone, 1 mM NADPH, 30 min at 37° C.
Method: (1) Preparation of 5α-reductase from human prostates
Frozen human prostates were thawed on ice and minced with scissors into small pieces (~1 mm^3). The minced tissue was homogenized in 3 tissue volumes of ice cold medium A (20 mM potassium phosphate, pH 6.5, containing 0.32M sucrose, 1 mM dithiothreitol, 50 μM NADPH, 1 mM EDTA), first with a Brinkmann Polytron and then with a Dounce homogenizer. The homogenate was filtered through gauze and the filtrate was centrifuged at 140,000×g at 4° C. for 60 min. The resulting pellet was washed with 3 tissue volumes of medium A. The washed pellet was suspended (5-10 mg protein/ml) in 20 mM potassium phosphate, pH 6.5, containing 20% glycerol, 50 μM NADPH and 1 mM dithiothreitol. An appropriate aliquot of this suspension was used as the source of 5α-reductase.
5α-reductase activity was determined by following the conversion of testosterone to 5α-dihydrotestosterone (DHT). In brief, buffer (100 mM Tris-citrate, pH5.0), 1 mM NADPH and human prostatic 5α-reductase(0.4-1 mg protein) were placed in test tubes. After addition of test compounds (dissolved in 5 μl in DMSO or EtOH) or solvents to the tubes, the solutions were preincubated at room temperature for 10 min. The reactions were initiated by addition of 1 μM ^14 C-testosterone to a final volume of 0.5 ml. Following 30 min incubation at 37° C., the reactions were stopped by addition of 5 ml dichloromethane. After centrifugation at 1000 rpm for 5 min, the organic phase (bottom) was collected and the volume reduced to ~100 μl in a 42° C. water bath. The solutions were applied to silica plates and the plates were developed in chloroform/ethyl acetate (3:1) at room temperature. The radioactivity profiles were determined by a BIOSCAN imaging scanner. The silica in sections identified by BIOSCAN and counted in a scintillation counter. Enzyme activity was calculated from the percent of recovered radio label converted to the product DHT.

Row | SMILES | IC50 (Table 1) | IC50 (Table 2)
1 | CCc1ccc(-c2ccc(C(=O)c3ccc(CC(=O)O)n3C)cc2)cc1 [Example 2] | 24 nM | 
2 | Cn1c(CC(=O)O)ccc1C(=O)c1ccc(C2CCCCC2)cc1 [Example 3(1)] | 20 nM | 
3 | Cn1c(CC(=O)O)ccc1C(=O)c1ccc(-c2ccccc2)cc1 [Example 3(2)] | 19 nM | 
4 | Cn1c(CC(=O)O)ccc1C(=O)c1ccc(C(=O)c2ccccc2)cc1 [Example 3(5)] | 210 nM | 
5 | Cn1c(CC(=O)O)ccc1C(=O)c1ccc(OCc2ccccc2)cc1 [Example 3(8)] | 24 nM | 
6 | Cc1cc(OCc2ccccc2)ccc1C(=O)c1ccc(CC(=O)O)n1C [Example 3(16)] | 170 nM | 
7 | O=C(O)Cc1ccc(C(=O)c2ccc(-c3ccccc3)cc2)s1 [Example 3(18)] | 450 nM | 
8 | Cn1c(CC(=O)O)ccc1C(=O)c1ccc2c(c1)C(=O)c1ccccc1-2 [Example 3(20)] | 130 nM | 
9 | Cn1c(CC(=O)O)ccc1C(=O)CCCCc1ccccc1 [Example 3(22)] | 840 nM | 
10 | Cn1c(CC(=O)O)ccc1C(=O)c1ccc(CSc2ccccc2)cc1 [Example 3(41)] | 98 nM | 
11 | Cn1c(CC(=O)O)ccc1C(=O)c1ccc(/C=C/c2ccccc2)cc1 [Example 3(47)] | 56 nM | 
12 | Cn1c(CC(=O)O)ccc1C(=O)c1ccc(-n2cccc2)cc1 [Example 3(50)] | 160 nM | 
13 | Cn1c(CC(=O)O)ccc1C(=O)c1ccc(-c2cccs2)cc1 [Example 3(54)] | 23 nM | 
14 | Cn1c(CC(=O)O)ccc1C(=O)c1ccc(-c2ccc(Br)s2)cc1 [Example 3(55)] | 24 nM | 
15 | Cn1c(CC(=O)O)ccc1C(=O)c1ccc(-c2ccc(F)cc2)cc1 [Example 3(62)] | 41 nM | 
16 | Cn1c(C(=O)O)ccc1C(=O)c1ccc(-c2ccccc2)cc1 [Example 3(70)] | 170 nM | 
17 | Cn1c(CC(=O)O)ccc1C(=O)C1CCC(c2ccccc2)CC1 (stereo not drawn) [Example 3(77)] | 250 nM | 
18 | Cn1c(CC(=O)O)ccc1C(=O)c1ccc(-c2cc(Cl)cc(Cl)c2)cc1 [Example 3(82)] | 630 nM | 
19 | Cc1cc(C(=O)c2ccc(CC(=O)O)n2C)ccc1-c1ccccc1 [Example 3(83)] | 92 nM | 
20 | CCCCCCOc1ccc(C(=O)c2ccc(CC(=O)O)n2C)cc1 [hexyloxy] |  | 170 nM
21 | Cn1c(CC(=O)O)ccc1C(=O)c1ccc(I)cc1 [iodo] |  | 440 nM
22 | CC(C)Cc1ccc(C(=O)c2ccc(CC(=O)O)n2C)cc1 [isobutyl] |  | 74 nM
23 | Cc1ccc(C(=O)c2ccc(CC(=O)O)n2C)cc1 [methyl] |  | 8000 nM
24 | Cn1c(CC(=O)O)ccc1C(=O)c1ccc(C(C)(C)C)cc1 [t-butyl] |  | 400 nM
